Results on 4 molecules are retold here after US8895526B2, “Identification of RNAI targets and use of RNAI for rational therapy of chemotherapy-resistant leukemia and other cancers” (Cold Spring Harbor Laboratory, priority 2009, dated 2014).

The nature of series [1]: Tolerability of anthracycline in mice. Format: in vivo. To be noted: applied intraperitoneally. On the procedure:
To study factors that influence the outcome of conventional AML therapy in mice, we established a simple chemotherapy regimen involving intraperitoneal injection of cytarabine (100 mg/kg over 5 days) and doxorubicin (3 mg/kg over 3 days; FIG. 36A), which mimics the standard induction therapy used to treat AML in human patients. […] Efficacy and safety of this regimen were initially evaluated in a previously described model based on co-transduction of MLL/ENL and FLT3-ITD (Ono et al. 2005). In order to rapidly generate homogenous treatment cohorts we harvested bone marrow and spleen from terminally ill primary FLC recipient mice and transplanted 1 million leukemia cells into 20-30 secondary recipients. In initial studies, we noted that this combination therapy was not tolerated in mice when treatment was initiated based on a high leukemia burden in the peripheral blood; although the peripheral disease disappeared within two days, animals died shortly thereafter with peripheral leukopenia.

Series [2] concerns HCT116 cells. Briefly: siRNA cytotoxicity: reduction in HCT116 culture confluency after transfection. The conditions noted are these: relative to negative control RNAi cultures. Format: cell-based, human. Here is the method: siRNAs derived from the shRNAs of Example 2 were all highly cytotoxic to HCT116 cells. The siRNA sequences and shRNAs from which they were derived are shown below
Cytotoxicity was determined by the reduction in culture confluency over time after transfection of the siRNA relative to negative control RNAi cultures.

The test system of series [3] is Kasumi1.
The subject of series [4] is HL60.
The subject of series [5] is non-transformed 32D cell line. To be noted: different concentrations.
Series [6] relates to Molm13.
In series [7] the test system is MLL-AF9/Nras leukemia cells. To be noted: different concentrations.
Series [8] relates to mouse liver carcinoma cells. Nature of the series: Subcutaneous liver carcinoma tumor growth after doxycycline induction of shRNA. It counts as in vivo, nude mice. To be noted: doxycycline 2 mg/ml in drinking water from two weeks after injection. On the procedure:
One million mouse liver carcinoma cells transduced with an inducible shRpa3.457 were injected subcutaneously in nude mice. Two weeks after injection, mice were either treated with doxycycline 2 mg/ml in their drinking water, or left untreated. Change in tumor volumes was measured following treatment.

In series [9] the test system is Hepa1.6 cells. Briefly: In vitro competition assay in Hepa1.6 cells. Format: cell-based, mouse. To be noted: five passages 1:8. From the text: Two days after transduction with a GFP-tagged vector, the number of fluorescent cells was quantified. Cells were passaged 1:8 five times, and the number of GFPpositive transduced cells was quantified at each passage.
For series [10], the system named is Mouse hepatocellular carcinoma cells (Hepa1.6). Briefly: Hepa1.6 colony formation assay. It counts as cell-based. To be noted: high MOI, low density plating, crystal violet. Here is the method:
(FIG. 8A) Mouse hepatocellular carcinoma cells (Hepa1.6) were transduced at high MOI with shRNAs targeting replication genes. Cells were plated at low density, stained with crystal violet, and staining was quantified on a Licor scanner. Values are normalized to empty vector control. (FIG. 8B) Representative scans of colony formation assays of cells infected with an antiproliferative shRNA (top—shRpa3.457) or empty vector control (bottom).
An assay similar to that described in Example 1 was used to test the effect of RNAi molecules against genes encoding DNA replication proteins in mouse cancer cells (Hepa1.6). Similar results in mouse cells were observed as compared to human cells (FIG. 8 and FIG. 9). For example, mouse tumors regress upon induction of RNAi against Rpa3 (FIG. 17).

As for `COc1cccc2c1C(=O)c1c(O)c3c(c(O)c1C2=O)C[C@@](O)(C(C)=O)C[C@@H]3O[C@H]1C[C@H](N)[C@H](O)[C@H](C)O1` [daunorubicin], in series [1], the toxicity result was “high toxicity”.
Regarding “RPA3si1417: siRNA CAUCUUAUGUCCAGUUUAA (SEQ ID NO: 1), derived from v2HS_32101 (listed as RNA, chemistry not fully specified)”, the “cytotoxicity (reduction in culture confluency over time)” value in series [2] was “more cytotoxic than RPA3si1403”.
For the molecule `N[C@@H]1C[C@H]1c1ccccc1` (racemic) [tranylcypromine], the growth entry in series [3] was “an effect on growth”; in series [4], “an effect on growth”; in series [5], “no impact”; in [6] it was “an effect on growth”. Besides, in series [7], the proliferation result is reported as “dose-dependent inhibition”.

B1: shRpa3.457: shRNA, SEQ ID NO: 60 (nucleic acid)
chain: TGCTGTTGACAGTGAGCGCGCGACTCCTATAATTTCTAATTAGTGAAGCCACAGATGTAATTAGAAATTATAGGAGTCGCTTGCCTACTGCCTCGGA
In the case of B1, in series [8], the “change in tumor volumes” value was “stopped growing or regressed”. In addition, the “competition with uninfected GFP-negative cells” value in [9] is “outcompeted by uninfected, GFP-negative cells”. Moreover, in [10], the “effect on colony formation” value is given as “antiproliferative”.
